Values of other authors in patent US20050065128A1, “2-alkylidene-19-nor-vitamin D derivatives for the treatment of hypogonadism or andropause” (Pfizer Inc, priority 2003, published 2005).
Like-named read-outs stand apart in the source and are kept apart here.

Experiments:
HL-60 cells = details: method of Ostrem et al.
[1] = tested on: Serum Calcium (Bone Calcium Mobilization); details: for Serum Calcium (mg/100 ml): intraperitoneal, male weanling rats on vitamin D-deficient low-calcium diet, 24 h after last dose, mean ± SEM; for activity on bone calcium mobilization (serum calcium) relative to 1,25-(OH)2D3 (native hormone): chronic 7-day dosing in rats, fold of the native hormone
[2] = tested on: Intestinal Calcium Transport; details: intraperitoneal, male weanling rats on vitamin D-deficient low-calcium diet, 24 h after last dose, mean ± SEM

SMILES	inducing differentiation of HL-60 cells to the monocyte (HL-60 cells)	Serum Calcium (mg/100 ml) ([1]; 130 pmol/day for 7 days)	Serum Calcium (mg/100 ml) ([1]; 260 pmol/day for 7 days)	activity on bone calcium mobilization (serum calcium) relative to 1,25-(OH)2D3 (native hormone) [1]	Intestinal Calcium Transport (S/M) ([2]; 130 pmol/day for 7 days)	Intestinal Calcium Transport (S/M) ([2]; 260 pmol/day for 7 days)
C=C1[C@H](O)CC(=C/C=C2\CCC[C@]3(C)[C@@H]([C@H](C)CCCC(C)(C)O)CC[C@@H]23)C[C@H]1O [2-Methylene-19-Nor-1,25-(OH)2D3, 1α,25-dihydroxy-2-methylene-19-nor-vitamin D3]	activity similar to 1,25-(OH)2D3	extremely strong bone calcium mobilization	extremely strong bone calcium mobilization	10-100 times	no intestinal calcium transport activity	no intestinal calcium transport activity
C=C1[C@H](O)CC(=C/C=C2\CCC[C@]3(C)[C@@H]([C@@H](C)CCCC(C)(C)O)CC[C@@H]23)C[C@H]1O [2-Methylene-19-Nor-20S-1,25-(OH)2D3, (20S)-1α,25-dihydroxy-2-methylene-19-nor-vitamin D3]	extremely potent			at least 10 times	no significant change	no significant change
